Reference: paper PMC12655757, “Design and Synthesis of Novel Candidate CK1δ Proteolysis Targeting Chimeras (PROTACs)” (Molecules, 2025)
pIC50: −log10 of the molar value.

Columns and labels:
[1] = target: T1, CK1δ (Homo sapiens, UniProt P48730); experiment: in vitro radiometric kinase assay ([…]-ATP, CK1 peptide substrate); assay type: biochemical
T1 construct: gene CSNK1D

[2] = target: T1, CK1δ; experiment: in vitro radiometric kinase assay ([…]-ATP, CK1 peptide substrate); CRBN-dependent CK1δ degradation in cells; assay type: biochemical

T1 sequence (P48730 whole entry): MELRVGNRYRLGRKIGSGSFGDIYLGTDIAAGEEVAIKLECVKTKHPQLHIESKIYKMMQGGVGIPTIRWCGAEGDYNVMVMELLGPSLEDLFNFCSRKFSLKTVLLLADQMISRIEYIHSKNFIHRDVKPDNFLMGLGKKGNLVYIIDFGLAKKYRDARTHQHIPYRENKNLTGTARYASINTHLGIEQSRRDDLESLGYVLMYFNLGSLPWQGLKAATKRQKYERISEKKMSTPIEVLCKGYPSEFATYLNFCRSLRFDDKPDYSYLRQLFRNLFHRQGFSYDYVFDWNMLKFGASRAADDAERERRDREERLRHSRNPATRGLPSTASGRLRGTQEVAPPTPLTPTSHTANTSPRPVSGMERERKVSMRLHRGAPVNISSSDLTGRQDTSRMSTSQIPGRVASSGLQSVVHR

Question: How did the pIC50 [1] turn out when `O=C1CCC(N2C(=O)c3cccc(OCCCOCCC(=O)Nc4ccc(Cn5c(SCC(=O)Nc6nc7ccc(C(F)(F)F)cc7s6)nccc5=O)cc4)c3C2=O)C(=O)N1` (stereo not shown) [P3d] was run?
Answer: 5.71

Question: With `O=C1CCC(N2C(=O)c3ccc(OCCCOCCC(=O)Nc4ccc(Cn5c(SCC(=O)Nc6nc7ccc(C(F)(F)F)cc7s6)nccc5=O)cc4)cc3C2=O)C(=O)N1` (stereo not shown) [P4d] as the molecule, how does the pIC50 [1] read?
Answer: ~5.66

Question: With `Nc1ccc(Cn2c(SCC(=O)Nc3nc4ccc(C(F)(F)F)cc4s3)nccc2=O)cc1` [I9] as the molecule, how does the pIC50 [1] read?
Answer: 5.46

Question: How did the pIC50 [2] turn out when `O=C1CCC(N2C(=O)c3cccc(NCCCCCC(=O)Nc4ccc(Cn5c(SCC(=O)Nc6nc7ccc(C(F)(F)F)cc7s6)nccc5=O)cc4)c3C2=O)C(=O)N1` (stereo not shown) [P1d] was run?
Answer: 5.67
